Structures are written as SMILES.

The target in the assay is T1, PDK1 (Homo sapiens, UniProt O15530).
T1 construct: His6 (N)
T1 sequence (O15530 51-556 limits assumed): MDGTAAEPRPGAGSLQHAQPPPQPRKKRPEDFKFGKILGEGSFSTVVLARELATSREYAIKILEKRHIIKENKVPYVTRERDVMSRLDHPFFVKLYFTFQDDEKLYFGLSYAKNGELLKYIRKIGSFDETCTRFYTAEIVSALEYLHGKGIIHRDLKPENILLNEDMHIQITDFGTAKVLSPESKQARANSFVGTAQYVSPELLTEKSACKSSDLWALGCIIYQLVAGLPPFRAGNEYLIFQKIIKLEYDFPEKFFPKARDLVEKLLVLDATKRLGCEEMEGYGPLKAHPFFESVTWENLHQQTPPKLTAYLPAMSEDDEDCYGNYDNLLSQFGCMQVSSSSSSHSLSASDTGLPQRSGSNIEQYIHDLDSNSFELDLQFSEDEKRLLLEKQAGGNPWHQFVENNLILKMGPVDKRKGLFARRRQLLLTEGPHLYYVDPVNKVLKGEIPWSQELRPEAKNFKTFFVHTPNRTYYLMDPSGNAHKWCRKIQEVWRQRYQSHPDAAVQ
The experiment in a line: Test for the inhibition of PDK1 (flashplate, 33P-ATP). It is filed as biochemical. The settings on record: His6-PDK1 3.4 nM, 4 μM ATP, 30° C., 60 min. Here is the method: The experimental batches are carried out in a flashplate system with 384 wells/microtitration plate.
In each case, the PDK1 sample His6-PDK1(1-50)(3.4 nM), the PDK1 substrate biotin-bA-bA-[…] (400 nM), 4 μM ATP (with 0.2 μCi of ^33 P-ATP/well) and the test substance in 50 μl of conventional experimental solution per well are incubated at 30° C. for 60 min. The test substances are employed in corresponding concentrations (if desired in a dilution series). The control is carried out without test substance. The reaction is stopped using standard methods and washed. The activity of the kinase is measured via the incorporated radioactivity in top count. In order to determine the non-specific kinase reaction (blank value), the experimental batches are carried out in the presence of 100 nM staurosporin.
The radioactivity (decompositions per minute) of the blank value (no use of test substance in the presence of staurosporin) is subtracted from all other radioactivity values. The controls (kinase activity without test substance) are set equal to 100 percent and all other radioactivity values (after subtracting the blank value) are expressed set in relation thereto (for example in % of the control).
[formula] IC50 values (50% inhibition) are determined with the aid of statistics programmes, such as, for example, RS1.
What is called IC50 is the concentration needed to halve the response being measured. A higher IC50 goes with weaker potency in that assay. In the case of `COC(C)(c1ccccc1)c1cc(-c2c[nH]c3ncc(-c4cnn(CCO)c4)cc23)nc(N)n1` (centres unmarked) [A27, 2-(4-{3-[2-amino-6-(1-methoxy-1-phenylethyl)pyrimidin-4-yl]-1H-pyrrolo-[2,3-b]pyridin-5-yl}pyrazol-1-yl)ethanol], the IC50 came to 0.032 µM.
`CCC(O)(c1ccncc1)c1cc(-c2c[nH]c3ncc(-c4cnn(C)c4)cc23)nc(N)n1` (centres unmarked) [A28, 1-{2-amino-6-[5-(1-methyl-1H-pyrazol-4-yl)-1H-pyrrolo[2,3-b]pyridin-3-yl]-pyrimidin-4-yl}-1-pyridin-4-ylpropan-1-ol]: the IC50 amounted to 0.0069 µM.
With `COCOC(C)(c1cc(-c2c[nH]c3ncc(-c4cnn(C)c4)cc23)nc(N)n1)c1cccc(Cl)c1F` (centres unmarked) [A29, 4-[1-(3-chloro-2-fluorophenyl)-1-methoxymethoxyethyl]-6-[5-(1-methyl-1H-pyrazol-4-yl)-1H-pyrrolo[2,3-b]pyridin-3-yl]pyrimidin-2-ylamine], the IC50 came to 0.04 µM.
`CCC(OCOC)(c1cc(-c2c[nH]c3ncc(-c4cnn(C)c4)cc23)nc(N)n1)c1cccc(Cl)c1F` (centres unmarked) [A30, 4-[1-(3-chloro-2-fluorophenyl)-1-methoxymethoxypropyl]-6-[5-(1-methyl-1H-pyrazol-4-yl)-1H-pyrrolo[2,3-b]pyridin-3-yl]pyrimidin-2-ylamine] registered a 50% inhibitory concentration (IC50) of 0.13 µM.
Take `Cn1cc(-c2cnc3[nH]cc(-c4cc(C(C)(O)c5ccc(CO)cc5)nc(N)n4)c3c2)cn1` (centres unmarked) [A31, 1-{2-amino-6-[5-(1-methyl-1H-pyrazol-4-yl)-1H-pyrrolo[2,3-b]pyridin-3-yl]-pyrimidin-4-yl}-1-(4-hydroxymethylphenyl)ethanol]: the IC50 stood at 0.044 µM.
In turn, `CCC(OCOC)(c1cc(-c2c[nH]c3ncc(-c4cnn(C)c4)cc23)nc(N)n1)c1ccncc1F` (centres unmarked) [A32, 4-[1-(3-fluoropyridin-4-yl)-1-methoxymethoxypropyl]-6-[5-(1-methyl-1H-pyrazol-4-yl)-1H-pyrrolo[2,3-b]pyridin-3-yl]pyrimidin-2-ylamine] gave an IC50 of 0.025 µM.
The compound `CCC(OCOC)(c1ccncc1)c1cc(-c2c[nH]c3ncc(Br)cc23)nc(N)n1` (centres unmarked) [A34, 4-(5-bromo-1H-pyrrolo[2,3-b]pyridin-3-yl)-6-(1-methoxymethoxy-1-pyridin-4-ylpropyl)pyrimidin-2-ylamine] showed an IC50 of 0.17 µM.
Turning to `CCCC(OCOC)(c1ccncc1)c1cc(-c2c[nH]c3ncc(-c4cnn(C)c4)cc23)nc(N)n1` (centres unmarked) [A36, 4-(1-methoxymethoxy-1-pyridin-4-ylbutyl)-6-[5-(1-methyl-1H-pyrazol-4-yl)-1H-pyrrolo[2,3-b]pyridin-3-yl]pyrimidin-2-ylamine], the midpoint of inhibition, the IC50, lay at 0.056 µM.
`CCC(OCOC)(c1cc(-c2c[nH]c3ncc(-c4cnn(C)c4)cc23)nc(N)n1)c1ccncc1F` (centres unmarked) [A37, 4-[1-(3-fluoropyridin-4-yl)-1-methoxymethoxypropyl]-6-[5-(1-methyl-1H-pyrazol-4-yl)-1H-pyrrolo[2,3-b]pyridin-3-yl]pyrimidin-2-ylamine] showed an IC50 of 0.025 µM.
Turning to `CC(=O)N1CCN(c2ccc(-c3cnc4[nH]cc(-c5cc(C(C)(O)c6ccccc6)nc(N)n5)c4c3)cn2)CC1` (centres unmarked) [A38, 1-[4-(5-{3-[2-amino-6-(1-hydroxy-1-phenylethyl)pyrimidin-4-yl]-1H-pyrrolo-[2,3-b]pyridin-5-yl}pyridin-2-yl)piperazin-1-yl]ethanone], the IC50 turned out to be 0.14 µM.
Consider `CC(O)(c1ccccc1)c1cc(-c2c[nH]c3ncc(-c4cnn(C(F)F)c4)cc23)nc(N)n1` (centres unmarked) [A39, 1-{2-amino-6-[5-(1-difluoromethyl-1H-pyrazol-4-yl)-1H-pyrrolo[2,3-b]pyridin-3-yl]pyrimidin-4-yl}-1-phenylethanol], for which the IC50 stood at 0.091 µM.
`CC(O)(c1ccccc1)c1cc(-c2c[nH]c3ncc(-c4cnn(C(F)F)c4)cc23)nc(N)n1` (centres unmarked) [A40, 1-{2-amino-6-[5-(1-difluoromethyl-1H-pyrazol-4-yl)-1H-pyrrolo[2,3-b]pyridin-3-yl]pyrimidin-4-yl}-1-phenylethanol] had a half-inhibitory concentration (IC50) of 0.054 µM.
With `CC[C@@](O)(c1ccncc1)c1cc(-c2c[nH]c3ncc(-c4cnn(CC(=O)N5CCCCC5)c4)cc23)nc(N)n1` [A46, 2-(4-{3-[2-amino-6-((R)-1-hydroxy-1-pyridin-4-ylpropyl)pyrimidin-4-yl]-1H-pyrrolo[2,3-b]pyridin-5-yl}pyrazol-1-yl)-1-piperidin-1-ylethanone], the IC50 was 0.055 µM.
`CC(O)(c1ccccc1)c1cc(-c2c[nH]c3ncc(-c4cnn(Cc5cccs5)c4)cc23)nc(N)n1` (centres unmarked) [A47, 1-{2-amino-6-[5-(1-thiophen-2-ylmethyl-1H-pyrazol-4-yl)-1H-pyrrolo[2,3-b]-pyridin-3-yl]pyrimidin-4-yl}-1-phenylethanol] registered a half-inhibitory concentration (IC50) of 0.1 µM.
On to `CC(O)(c1ccccc1)c1cc(-c2c[nH]c3ncc(-c4cnn(S(C)(=O)=O)c4)cc23)nc(N)n1` (centres unmarked) [A48, 1-{2-amino-6-[5-(1-methanesulfonyl-1H-pyrazol-4-yl)-1H-pyrrolo[2,3-b]pyridin-3-yl]pyrimidin-4-yl}-1-phenylethanol], for which half-maximal inhibition (IC50) required 0.14 µM.
For `CC(O)(c1cccc(F)c1)c1cc(-c2c[nH]c3ncc(-c4ccc(CO)cc4)cc23)nc(N)n1` (centres unmarked) [A49, 1-{2-amino-6-[5-(4-hydroxymethylphenyl)-1H-pyrrolo[2,3-b]pyridin-3-yl]-pyrimidin-4-yl}-1-(3-fluorophenyl)ethanol], the IC50 is 0.036 µM.
`CC[C@@](OCOC)(c1cccc(F)c1)c1cc(-c2c[nH]c3ncc(Br)cc23)nc(N)n1` [A51, 4-(5-bromo-1H-pyrrolo[2,3-b]pyridin-3-yl)-6-[(R)-1-(3-fluorophenyl)-1-methoxymethoxypropyl]pyrimidin-2-ylamine] registered an IC50 of 0.65 µM.
In the case of `CC[C@](OCOC)(c1cccc(F)c1)c1cc(-c2c[nH]c3ncc(Br)cc23)nc(N)n1` [A52, 4-(5-bromo-1H-pyrrolo[2,3-b]pyridin-3-yl)-6-[(S)-1-(3-fluorophenyl)-1-methoxymethoxypropyl]pyrimidin-2-ylamine], the IC50 was more than 30 µM.
The compound `CCC(OCOC)(c1cccc(F)c1)c1cc(-c2c[nH]c3ncc(Br)cc23)nc(N)n1` (centres unmarked) [A54, 4-(5-bromo-1H-pyrrolo[2,3-b]pyridin-3-yl)-6-[1-(3-fluorophenyl)-1-methoxymethoxypropyl]pyrimidin-2-ylamine] showed an IC50 of 1.5 µM.
Take `CC(O)(c1cccc(F)c1)c1cc(-c2c[nH]c3ncc(-c4ccc(CC#N)cc4)cc23)nc(N)n1` (centres unmarked) [A55, [4-(3-{2-amino-6-[1-(3-fluorophenyl)-1-hydroxyethyl]pyrimidin-4-yl}-1H-pyrrolo[2,3-b]pyridin-5-yl)phenyl]acetonitrile]: the IC50 is 0.075 µM.
Consider `COCOC(C)(c1ccncc1)c1cc(-c2c[nH]c3ncc(Br)cc23)nc(N)n1` (centres unmarked) [A56, 4-(5-bromo-1H-pyrrolo[2,3-b]pyridin-3-yl)-6-(1-methoxymethoxy-1-pyridin-4-ylethyl)pyrimidin-2-ylamine], for which the midpoint of inhibition, the IC50, lay at 0.15 µM.
With `CC(O)(c1cccc(F)c1)c1cc(-c2c[nH]c3ncc(-c4cnn(CC(=O)N5CCCCC5)c4)cc23)nc(N)n1` (centres unmarked) [A59, 2-[4-(3-{2-amino-6-[1-(3-fluorophenyl)-1-hydroxyethyl]pyrimidin-4-yl}-1H-pyrrolo[2,3-b]pyridin-5-yl)pyrazol-1-yl]-1-piperidin-1-ylethanone] the figure was 0.069 µM; with `CC(O)(c1ccccc1)c1cc(-c2c[nH]c3ncc(-c4cnn(CCC(=O)NCCN)c4)cc23)nc(N)n1` (centres unmarked) [A60, N-(2-aminoethyl)-3-(4-{3-[2-amino-6-(1-hydroxy-1-phenylethyl)pyrimidin-4-yl]-1H-pyrrolo[2,3-b]pyridin-5-yl}pyrazol-1-yl)propionamide], 0.024 µM; with `CC(O)(c1ccncc1)c1cc(-c2c[nH]c3ncc(-c4cnn(CC(=O)N5CCCCC5)c4)cc23)nc(N)n1` (centres unmarked) [A61, 2-(4-{3-[2-amino-6-(1-hydroxy-1-pyridin-4-ylethyl)pyrimidin-4-yl]-1H-pyrrolo-[2,3-b]pyridin-5-yl}pyrazol-1-yl)-1-piperidin-1-ylethanone], 0.0021 µM.
As for `CC(O)(c1ccncc1)c1cc(-c2c[nH]c3ncc(-c4cn[nH]c4)cc23)nc(N)n1` (centres unmarked) [A62, 1-{2-amino-6-[5-(1H-pyrazol-4-yl)-1H-pyrrolo[2,3-b]pyridin-3-yl]pyrimidin-4-yl}-1-pyridin-4-ylethanol], 0.0028 µM corresponded to half-maximal inhibition (IC50).
As to `CC(C)(C)OC(=O)NCCNC(=O)CCn1cc(-c2cnc3[nH]cc(-c4cc(C(C)(O)c5ccccc5)nc(N)n4)c3c2)cn1` (centres unmarked) [A63, tert-butyl {2-[3-(4-{3-[2-amino-6-(1-hydroxy-1-phenylethyl)pyrimidin-4-yl]-1H-pyrrolo[2,3-b]pyridin-5-yl}pyrazol-1-yl)propionylamino]ethyl}carbamate], the IC50 worked out at 0.11 µM.

The values above are taken from patent US8575163B2, “Pyrrolopyridinylpyrimidin-2-ylamine derivatives” (Merck Patent GmbH, priority 2009, dated 2013).
